The text below walks through data of patent US6331555A, “Treatment of platelet derived growth factor related disorders such as cancers” (priority 1999, dated 2001).

The structures appear in SMILES notation. Like-named read-outs stand apart in the source and are kept apart here.

The target in one assay is PDGFR (Homo sapiens, UniProt P09619). Put plainly: PDGF-stimulated receptor phosphorylation in U1242 cells, ELISA. The following applies: for IC50: 100 ng/ml PDGF-BB, read-out: ELISA P-TYR U1242 IC50. Format: cell-based. The arrangement: U1242 (PDGF-β receptor); host or cells: U1242 MG glioma cells. The method in brief:
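U1242 MG cells in 0.5% serum were pretreated with compound for 2 h at 37° C, then stimulated 5–10 min with PDGF-BB (100 ng/ml). Lysates captured on anti-PDGF receptor-coated plates; receptor phosphotyrosine detected by anti-phosphotyrosine ELISA with POD/ABTS read-out at 410 nm.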
(An ELISA detects its analyte on a solid surface through an enzyme-linked reagent.)

In another assay the target is T1, EGFR (Homo sapiens, UniProt P00533).
T1 construct: expressed in transfected cells; host or cells: NIH3T3 mouse fibroblasts, retroviral vector
As to the kind of experiment: Receptor tyrosine kinase inhibition, EGFR. Format: cell-based. Summed up:
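For ELISA, cells kept overnight in 0.5% serum were switched to serum-free medium, given compound for 2 h at 37 °C, then ligand-stimulated for 5–10 min. Lysates were captured on receptor-specific antibody plates and probed with anti-phosphotyrosine antibody. For western blots, cells in 1% FBS received ligand for 7 min at room temperature before anti-phosphotyrosine immunoblotting.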

A further assay relates to C6 cells. Put plainly: C6 SRB growth assay. Format: cell-based, rat. (In SRB staining, fixed cells bind dye roughly in proportion to their protein.)
Where [1] appears, read: Rattus norvegicus, C6; read-out: C6 SRB IC50.

Chain of PDGFR (P09619 33-1106): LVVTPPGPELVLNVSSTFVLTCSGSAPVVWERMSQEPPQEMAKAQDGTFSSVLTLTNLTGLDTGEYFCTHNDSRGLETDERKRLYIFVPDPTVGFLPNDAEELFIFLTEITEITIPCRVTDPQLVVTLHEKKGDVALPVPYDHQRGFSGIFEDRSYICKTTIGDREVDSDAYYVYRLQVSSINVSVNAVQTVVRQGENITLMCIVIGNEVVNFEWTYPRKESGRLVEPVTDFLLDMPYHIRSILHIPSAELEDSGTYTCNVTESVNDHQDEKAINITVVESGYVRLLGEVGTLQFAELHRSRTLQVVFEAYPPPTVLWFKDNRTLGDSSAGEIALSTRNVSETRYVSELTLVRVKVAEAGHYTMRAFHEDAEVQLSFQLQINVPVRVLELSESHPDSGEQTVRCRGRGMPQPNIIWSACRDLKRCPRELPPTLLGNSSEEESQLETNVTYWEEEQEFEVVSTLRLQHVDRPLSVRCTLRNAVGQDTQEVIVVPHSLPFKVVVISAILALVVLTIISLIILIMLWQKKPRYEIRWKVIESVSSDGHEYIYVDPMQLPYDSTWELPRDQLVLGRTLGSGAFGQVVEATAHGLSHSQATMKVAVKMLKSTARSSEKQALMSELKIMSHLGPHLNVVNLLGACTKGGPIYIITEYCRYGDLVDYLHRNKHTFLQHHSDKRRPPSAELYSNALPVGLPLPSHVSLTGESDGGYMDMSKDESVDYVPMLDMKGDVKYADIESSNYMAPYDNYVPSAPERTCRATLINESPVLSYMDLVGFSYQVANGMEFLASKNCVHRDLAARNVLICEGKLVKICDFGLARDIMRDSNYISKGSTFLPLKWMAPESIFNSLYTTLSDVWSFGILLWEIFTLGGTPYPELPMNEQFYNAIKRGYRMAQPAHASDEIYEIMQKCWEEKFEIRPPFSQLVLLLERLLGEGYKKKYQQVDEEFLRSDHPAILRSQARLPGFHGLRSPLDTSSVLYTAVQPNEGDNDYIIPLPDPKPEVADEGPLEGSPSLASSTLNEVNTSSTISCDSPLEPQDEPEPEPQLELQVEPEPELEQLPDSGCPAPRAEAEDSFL
T1 sequence (P00533 25-1210): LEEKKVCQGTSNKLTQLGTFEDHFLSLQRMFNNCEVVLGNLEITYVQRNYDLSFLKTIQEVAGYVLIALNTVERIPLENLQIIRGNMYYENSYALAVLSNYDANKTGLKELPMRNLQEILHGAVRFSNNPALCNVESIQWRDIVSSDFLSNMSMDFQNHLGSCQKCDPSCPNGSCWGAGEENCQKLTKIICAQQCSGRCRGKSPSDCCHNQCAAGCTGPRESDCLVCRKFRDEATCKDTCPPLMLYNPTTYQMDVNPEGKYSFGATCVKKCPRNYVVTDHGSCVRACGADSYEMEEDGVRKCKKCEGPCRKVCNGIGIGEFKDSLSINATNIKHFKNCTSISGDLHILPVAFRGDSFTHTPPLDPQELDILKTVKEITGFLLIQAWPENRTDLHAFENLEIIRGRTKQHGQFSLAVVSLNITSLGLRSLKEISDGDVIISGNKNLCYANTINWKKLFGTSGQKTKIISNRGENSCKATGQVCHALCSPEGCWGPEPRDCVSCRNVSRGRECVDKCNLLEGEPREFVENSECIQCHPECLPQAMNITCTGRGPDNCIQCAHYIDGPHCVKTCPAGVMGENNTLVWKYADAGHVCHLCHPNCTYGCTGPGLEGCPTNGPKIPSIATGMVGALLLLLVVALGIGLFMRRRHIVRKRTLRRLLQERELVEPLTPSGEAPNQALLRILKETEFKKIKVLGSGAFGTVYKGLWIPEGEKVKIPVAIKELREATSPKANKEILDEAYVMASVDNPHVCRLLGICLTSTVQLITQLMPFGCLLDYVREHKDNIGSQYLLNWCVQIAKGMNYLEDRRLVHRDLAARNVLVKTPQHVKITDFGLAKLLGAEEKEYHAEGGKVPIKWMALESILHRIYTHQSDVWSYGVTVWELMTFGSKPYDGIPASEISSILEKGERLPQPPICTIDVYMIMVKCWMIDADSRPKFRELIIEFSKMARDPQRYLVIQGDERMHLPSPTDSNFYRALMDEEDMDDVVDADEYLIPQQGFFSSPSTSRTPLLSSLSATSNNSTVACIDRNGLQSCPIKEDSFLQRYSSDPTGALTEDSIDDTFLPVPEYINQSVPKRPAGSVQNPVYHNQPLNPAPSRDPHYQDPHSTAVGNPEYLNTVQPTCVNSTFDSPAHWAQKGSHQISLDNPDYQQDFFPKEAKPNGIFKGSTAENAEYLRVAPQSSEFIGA

With `Cc1oncc1C(=O)Nc1ccc(C(F)(F)F)cc1` [Compound A10, 5-methylisoxazole-4 carboxylic acid-(4-trifluromethyl)-anilide], the IC50 on PDGFR is 65 µM; with C6 cells (Rattus norvegicus, C6; PDGF-R expression ++; read-out: SRB), 0.3 µM. In addition, the “EGF receptor phosphorylation” value at EGFR was “little if any effect on EGF-receptor or HER2 phosphorylation”.

As for `N#CC(=Cc1c[nH]c2ccccc12)C(N)=S` [Compound D11], on PDGFR, the IC50 is 8 µM.

As for `N#CC(=Cc1c[nH]c2ccccc12)c1[nH]nc(N)c1C#N` [Compound D14], the values for the IC50 on PDGFR and at EGFR (read-out: EGFR ID50) were 20 µM and over 100 µM, respectively. The “EGF receptor phosphorylation” value on EGFR was “do not effect EGF or HER2 phosphorylation”.

For `CN(C)CCCn1cc(C=C(C#N)c2[nH]nc(N)c2C#N)c2ccccc21` [Compound D15], the IC50 at PDGFR came to 20 µM.

For the compound `O=c1c2ccccc2nc(C=Cc2ccc(O)c(O)c2)n1CCO` [Compound F10], the values for the IC50 at PDGFR and with C6 cells (setting [1]) were 45 µM and over 12.5 µM, respectively.

Consider `Cc1cc2ncc(-c3ccccc3)nc2cc1C` [Compound G13], for which the “inhibition of PDGF-stimulated receptor phosphorylation” value against PDGFR is recorded as “had the lowest IC50”. Further, the “EGF receptor phosphorylation” value at EGFR is “do not effect EGF or HER2 phosphorylation”. For the same compound, in the assay on C6 cells (Rattus norvegicus, C6, read-out: C6 SRB IC50), the IC50 was over 50 µM.

Regarding `COc1cc2ncc(-c3ccccc3)nc2cc1OC` [Compound G14], at PDGFR, the “inhibition of PDGF-stimulated receptor phosphorylation” value was “had the lowest IC50” and the IC50 is 0.8 µM. Moreover, at EGFR, the “EGF receptor phosphorylation” value was “do not effect EGF or HER2 phosphorylation”. For the same compound, the IC50 in the assay on C6 cells (setting [1]) is over 50 µM.

With `Cc1cc2nc(-c3ccccc3)c(=O)[nH]c2cc1C` [Compound G18], the IC50 is 10 µM on PDGFR and 500 µM at EGFR (W = done in Western assay, read-out: EGFR ID50 (W)).

With `c1ccc(-c2cnc3cc4ccccc4cc3n2)cc1` [Compound G22], the results for the IC50 at PDGFR, on EGFR (read-out: EGFR ID50) and in the assay with C6 cells (setting [1]) were 1 µM, over 100 µM and over 6 µM, respectively.
